# Measured values as given in publication PMC10439158, “The net electrostatic potential and hydration of ABCG2 affect substrate transport” (Nature Communications, 2023).
# Like-named read-outs stand apart in the source and are kept apart here.
# Legend:
# [1] = target: T1, ABCG2 (Homo sapiens, UniProt Q9UNQ0); experiment: isothermal shift assay on membranes; Hoechst […] transport inhibition; 5D3 shift; disulfide crosslinking; type: cell-based; parameters: full-length ABCG2-WT in membrane vesicles / MEF cells
# T1 sequence (Q9UNQ0 1-655): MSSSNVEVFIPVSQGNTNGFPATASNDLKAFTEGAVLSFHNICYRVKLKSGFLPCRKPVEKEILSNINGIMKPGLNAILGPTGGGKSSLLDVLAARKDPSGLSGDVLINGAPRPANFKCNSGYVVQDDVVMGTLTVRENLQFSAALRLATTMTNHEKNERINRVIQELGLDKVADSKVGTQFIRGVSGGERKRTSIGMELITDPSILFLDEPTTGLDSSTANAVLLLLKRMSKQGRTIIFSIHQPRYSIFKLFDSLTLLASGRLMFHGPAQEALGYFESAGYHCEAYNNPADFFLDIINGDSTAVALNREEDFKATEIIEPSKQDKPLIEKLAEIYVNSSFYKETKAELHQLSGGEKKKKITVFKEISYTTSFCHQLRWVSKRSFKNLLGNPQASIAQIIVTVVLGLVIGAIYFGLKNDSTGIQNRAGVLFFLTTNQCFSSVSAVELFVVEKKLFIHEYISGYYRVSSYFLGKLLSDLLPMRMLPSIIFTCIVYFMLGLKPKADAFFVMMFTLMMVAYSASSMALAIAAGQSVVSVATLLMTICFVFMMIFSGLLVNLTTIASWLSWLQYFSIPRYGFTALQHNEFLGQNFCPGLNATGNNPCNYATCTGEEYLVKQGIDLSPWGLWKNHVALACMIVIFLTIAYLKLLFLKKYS
# [2] = target: T1, ABCG2; experiment: cell-based; parameters: full-length ABCG2-WT in MEF cells; species or system Abcg2-KO MEFs expressing human ABCG2-WT; Inhibition of ABCG2-mediated Hoechst 33342 efflux; intracellular Hoechst 33342 fluorescence accumulation, normalized to vector control; conditions: 0.5 uM Hoechst 33342 substrate, 2 h, 37 °C; read-out: IC50 for transport inhibition in WT
# Description: The intracellular accumulation of fluorescent Hoechst 33342, pheophorbide a, chlorin e6, and purpurin 18, ABCG2 substrates, was used to determine the function of ABCG2. […] Thereafter, the medium was removed, and cells were washed twice with 200 μL ice-cold PBS and the fluorescence of Hoechst 33342 was then quantitatively determined with a Synergy H4 microplate reader (BioTek, Winooski, VT, USA) at an excitation wavelength of 355 nm and an emission wavelength of 460 nm. The accumulation of Hoechst 33342 was normalized to protein concentration as determined using the BCA Protein Assay Kit (Pierce, Rockford, IL, USA). The data were normalized by the proportion accumulated relative (%) to vector control. For the time-dependent Hoechst 33342 accumulation assay, 10 μM Hoechst 33342 was treated for different time periods (0.5, 1, 1.5, 2, 5, 10, 20, 30, 60, and 90 min). Relative intracellular Hoechst 33342 levels in the MEFs were normalized to vector control at 90 min. For the other fluorescent substrate accumulation assay, 0.5 μM pheophorbide a, 5 μM chlorin e6, or 5 μM purpurin 18 were treated for 1 h at 37 °C in the dark. The intracellular accumulation of pheophorbide a, purpurin 18, or chlorin e6 was measured at an excitation wavelength of 405 nm and an emission wavelength of 667 nm. […] Thereafter, the medium was removed and cells were washed twice with 1 mL ice-cold PBS. […] The total radioactivity was measured by liqu Apparent EC50 and IC50 values were calculated from dose-response data using nonlinear regression analysis. All experiments were independently repeated at least three times. […] Non-polar residues are grey, polar residues are green, and acidic residues are red.
# [3] = target: T1, ABCG2; type: cell-based; parameters: full-length ABCG2-WT in membrane vesicles / MEF cells
# [4] = target: T1, ABCG2; experiment: cell-based; parameters: full-length ABCG2-WT in MEF cells; species or system MEF (mouse embryonic fibroblasts) expressing human ABCG2-WT; Inhibition of ABCG2-mediated Hoechst 33342 transport; intracellular Hoechst 33342 fluorescence accumulation; conditions: ABCG2-WT, 0.5 uM Hoechst 33342; read-out: Hoechst 33342 transport inhibition IC50
# Description: The intracellular accumulation of fluorescent Hoechst 33342, pheophorbide a, chlorin e6, and purpurin 18, ABCG2 substrates, was used to determine the function of ABCG2. For Hoechst 33342 accumulation assay, MEFs were seeded into a 96-well black clear bottom plate (Corning #3603) at 20,000 cells/well and 0.5 μM Hoechst 33342, and either [compound left out] or the test inhibitor (0.002–10 μM) were added to the culture medium followed by incubation for 2 h at 37 °C in the dark. Thereafter, the medium was removed, and cells were washed twice with 200 μL ice-cold PBS and the fluorescence of Hoechst 33342 was then quantitatively determined with a Synergy H4 microplate reader (BioTek, Winooski, VT, USA) at an excitation wavelength of 355 nm and an emission wavelength of 460 nm. The accumulation of Hoechst 33342 was normalized to protein concentration as determined using the BCA Protein Assay Kit (Pierce, Rockford, IL, USA). […] The intracellular accumulation of pheophorbide a, purpurin 18, or chlorin e6 was measured at an excitation wavelength of 405 nm and an emission wavelength of 667 nm. […] The total radioactivity was measured by liqu Fig. 4 N436A substitution affects inhibitor interaction. a–d Representative snapshots from MDS of tariquidar interacting with ABCG2. a ABCG2-WT with residues within 4 Å of tariquidar are in surface representation. […]
SMILES,isothermal shift assay on membranes; Hoechst 33342 transport inhibition; 5D3 shi [1],IC50 [2] [nM],isothermal shift assay on membranes; Hoechst 33342 transport inhibition; 5D3 shi [3],IC50 [4] [nM]
CS(=O)(=O)CCNCc1ccc(-c2ccc3ncnc(Nc4ccc(OCc5cccc(F)c5)c(Cl)c4)c3c2)o1 [lapatinib],"ABCG2 inhibitors, Ko143, tariquidar, and lapatinib, strongly and dose-dependently thermally stabilized ABCG2-WT",50,,
COc1cc2c(cc1OC)CN(CCc1ccc(NC(=O)c3cc(OC)c(OC)cc3NC(=O)c3cnc4ccccc4c3)cc1)CC2 [tariquidar],,,"ABCG2 inhibitors, Ko143, tariquidar, and lapatinib, strongly and dose-dependently thermally stabilized ABCG2-WT",80
